US6737383B1, “Herbicidal oxadiazolidines” (priority 1999, dated 2004)

Assays:
[1] = tested on: smallflower flatsedge; assay: Test B flood test smallflower flatsedge; format: in vivo, Cyperus difformis
Summary of the method: (§1)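 Read-out is a visual response score from 0 (no effect) to 10 (complete control), assigned by comparison with untreated controls. Treatment was applied at the 2-leaf stage, and plants stayed in the greenhouse for twelve to sixteen days before scoring.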

[2] = tested on: bedstraw; assay: Test B pre/postemergence bedstraw; format: in vivo, Galium aparine
Summary of the method: (§2)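 Test chemicals in a non-phytotoxic solvent mixture with surfactant were sprayed preemergence onto planted seeds and postemergence onto plants 2 to 18 cm tall (1- to 4-leaf stage). After twelve to sixteen days in a greenhouse, injury was visually rated against untreated controls from 0 (no effect) to 10 (complete control).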

[3] = tested on: purple nutsedge; assay: Test B pre/postemergence purple nutsedge; format: in vivo, Cyperus rotundus; conditions: for Nutsedge plant response rating: scale of 0 to 10 where 0 is no effect and 10 is complete control
Summary of the method: as §2

[4] = tested on: wild oat; assay: Test B pre/postemergence wild oat; format: in vivo, Avena fatua; conditions: for Wild oats plant response rating: scale of 0 to 10 where 0 is no effect and 10 is complete control
Summary of the method: as §2

[5] = tested on: cocklebur; assay: Test B pre/postemergence cocklebur; format: in vivo, Xanthium strumarium; conditions: for Cocklebur plant response rating: scale of 0 to 10 where 0 is no effect and 10 is complete control
Summary of the method: as §2

[6] = tested on: rice; assay: Test B flood test rice; format: in vivo, Oryza sativa
Summary of the method: as §1

[7] = tested on: pigweed; assay: Test B pre/postemergence pigweed; format: in vivo, Amaranthus retroflexus; conditions: for Redroot pigweed plant response rating: scale of 0 to 10 where 0 is no effect and 10 is complete control
Summary of the method: as §2

[8] = tested on: crabgrass; assay: Test B pre/postemergence crabgrass; format: in vivo, Digitaria sanguinalis; conditions: for Crabgrass plant response rating: scale of 0 to 10 where 0 is no effect and 10 is complete control
Summary of the method: as §2

[9] = tested on: bamyardgrass; assay: Test B flood test barnyardgrass; format: in vivo, Echinochloa crus-galli
Summary of the method: as §1

[10] = tested on: velvetleaf; assay: Test B pre/postemergence velvetleaf; format: in vivo, Abutilon theophrasti; conditions: for Velvetleaf plant response rating: scale of 0 to 10 where 0 is no effect and 10 is complete control
Summary of the method: as §2

[11] = tested on: wheat; assay: Test B pre/postemergence wheat; format: in vivo, Triticum aestivum; conditions: for Wheat plant response rating: scale of 0 to 10 where 0 is no effect and 10 is complete control
Summary of the method: as §2

[12] = tested on: surinam grass; assay: Test B pre/postemergence surinam grass; format: in vivo, Brachiaria decumbens
Summary of the method: as §2

[13] = tested on: soybean; assay: Test B pre/postemergence soybean; format: in vivo, Glycine max; conditions: for Soybean plant response rating: scale of 0 to 10 where 0 is no effect and 10 is complete control
Summary of the method: as §2

[14] = tested on: duck salad; assay: Test B flood test duck salad; format: in vivo, Heteranthera limosa
Summary of the method: as §1

[15] = tested on: blackgrass; assay: Test B pre/postemergence blackgrass; format: in vivo, Alopecurus myosuroides
Summary of the method: as §2

[16] = tested on: sugar beet; assay: Test B pre/postemergence sugar beet; format: in vivo, Beta vulgaris; conditions: for Sugarbeets plant response rating: scale of 0 to 10 where 0 is no effect and 10 is complete control
Summary of the method: as §2

[17] = tested on: morningglory; assay: Test B pre/postemergence morningglory; format: in vivo, Ipomoea hederacea; conditions: for Morningglory plant response rating: scale of 0 to 10 where 0 is no effect and 10 is complete control
Summary of the method: as §2

[18] = tested on: rape; assay: Test B pre/postemergence rape; format: in vivo, Brassica napus; conditions: for Rape plant response rating: scale of 0 to 10 where 0 is no effect and 10 is complete control
Summary of the method: as §2

[19] = tested on: giant foxtail; assay: Test B pre/postemergence giant foxtail; format: in vivo, Setaria faberii; conditions: for Giant foxtail plant response rating: scale of 0 to 10 where 0 is no effect and 10 is complete control
Summary of the method: as §2

[20] = tested on: corn; assay: Test B pre/postemergence corn; format: in vivo, Zea mays; conditions: for Corn plant response rating: scale of 0 to 10 where 0 is no effect and 10 is complete control
Summary of the method: as §2

[21] = Postemergence (flood test), Rate 125 g/ha, scale 0 to 10, 0 is no effect, 10 is complete control
[22] = Rate 500 g/ha, listed under Postemergence (flood test species), scale 0 to 10, 0 no effect, 10 complete control
[23] = Postemergence, Rate 125 g/ha, scale 0 to 10, 0 is no effect, 10 is complete control
[24] = Preemergence, Rate 62 g/ha, scale 0 to 10 (0 no effect, 10 complete control)
[25] = Preemergence, Rate 500 g/ha, scale of 0 to 10 where 0 is no effect and 10 is complete control
[26] = Rate 62 g/ha, Postemergence, scale of 0 to 10 where 0 is no effect and 10 is complete control
[27] = Rate 250 g/ha, Postemergence, scale of 0 to 10 where 0 is no effect and 10 is complete control
[28] = Rate 500 g/ha, Postemergence, scale 0 to 10, 0 no effect, 10 complete control
[29] = Preemergence, Rate 250 g/ha, scale of 0 to 10 where 0 is no effect and 10 is complete control

Structure (SMILES): CC(C)C(C)n1c(=O)on(C(=O)N(c2ccc(F)cc2F)C(C)C)c1=O (centres unmarked) [Compound 356]
- Plant response rating, S. Flatsedge [1, 21]: 4
- Plant response rating, S. Flatsedge [1, 22]: 7
- Plant response rating, Bedstraw [2, 23]: 0
- Plant response rating, Bedstraw [2, 24]: 0
- Bedstraw plant response rating (0 to 10 scale) ([2]; Preemergence, Rate 125 g/ha): 0
- Bedstraw plant response rating [2, 25]: 9
- Bedstraw plant response rating [2, 26]: 0
- Plant response rating, Bedstraw [2, 27]: 3
- Plant response rating, Bedstraw [2, 28]: 3
- Plant response rating, Nutsedge [3, 23]: 0
- Plant response rating, Nutsedge [3, 24]: 0
- Nutsedge plant response rating (0 to 10 scale) ([3]; Preemergence, Rate 125 g/ha): 0
- Nutsedge plant response rating ([3]; Preemergence, Rate 250 g/ha): 0
- Nutsedge plant response rating ([3]; Preemergence, Rate 500 g/ha): 0
- Nutsedge plant response rating ([3]; Rate 62 g/ha, Postemergence): 0
- Plant response rating, Nutsedge [3, 28]: 0
- Plant response rating, Wild oats [4, 23]: 3
- Plant response rating, Wild oats [4, 24]: 5
- Wild oats plant response rating (0 to 10 scale) ([4]; Preemergence, Rate 125 g/ha): 7
- Wild oats plant response rating ([4]; Preemergence, Rate 250 g/ha): 10
- Wild oats plant response rating ([4]; Rate 62 g/ha, Postemergence): 2
- Plant response rating, Wild oats [4, 28]: 3
- Plant response rating, Cocklebur [5, 23]: 0
- Cocklebur plant response rating (0 to 10 scale) ([5]; Preemergence, Rate 125 g/ha): 0
- Cocklebur plant response rating ([5]; Preemergence, Rate 250 g/ha): 0
- Cocklebur plant response rating ([5]; Preemergence, Rate 500 g/ha): 0
- Cocklebur plant response rating ([5]; Rate 62 g/ha, Postemergence): 0
- Plant response rating, Cocklebur [5, 28]: 0
- Plant response rating, Rice [6, 21]: 0
- Rice plant response rating ([6]; Rate 62 g/ha, Postemergence (flood test species), scale of 0 to 10 where 0 is no effect and 10 is complete control): 0
- Plant response rating, Rice [6, 22]: 0
- Plant response rating, Redroot pigweed [7, 23]: 0
- Plant response rating, Redroot pigweed [7, 24]: 0
- Redroot pigweed plant response rating (0 to 10 scale) ([7]; Preemergence, Rate 125 g/ha): 4
- Redroot pigweed plant response rating ([7]; Preemergence, Rate 250 g/ha): 8
- Redroot pigweed plant response rating ([7]; Preemergence, Rate 500 g/ha): 10
- Redroot pigweed plant response rating ([7]; Rate 62 g/ha, Postemergence): 0
- Plant response rating, Redroot pigweed [7, 28]: 0
- Plant response rating, Crabgrass [8, 23]: 0
- Plant response rating, Crabgrass [8, 24]: 7
- Crabgrass plant response rating (0 to 10 scale) ([8]; Preemergence, Rate 125 g/ha): 8
- Crabgrass plant response rating ([8]; Preemergence, Rate 250 g/ha): 9
- Crabgrass plant response rating ([8]; Preemergence, Rate 500 g/ha): 10
- Crabgrass plant response rating ([8]; Rate 62 g/ha, Postemergence): 0
- Plant response rating, Crabgrass [8, 28]: 3
- Plant response rating, Barnyardgrass [9, 21]: 0
- Plant response rating, Barnyardgrass ([9]; Rate 250 g/ha, Postemergence (flood test species), scale of 0 to 10 where 0 is no effect and 10 is complete control): 7
- Plant response rating, Barnyardgrass [9, 22]: 7
- Plant response rating, Velvetleaf [10, 23]: 0
- Plant response rating, Velvetleaf [10, 24]: 1
- Velvetleaf plant response rating (0 to 10 scale) ([10]; Preemergence, Rate 125 g/ha): 2
- Velvetleaf plant response rating ([10]; Preemergence, Rate 250 g/ha): 3
- Velvetleaf plant response rating ([10]; Preemergence, Rate 500 g/ha): 5
- Velvetleaf plant response rating ([10]; Rate 62 g/ha, Postemergence): 0
- Plant response rating, Velvetleaf [10, 28]: 0
- Plant response rating, Wheat [11, 23]: 3
- Plant response rating, Wheat [11, 24]: 0
- Wheat plant response rating (0 to 10 scale) ([11]; Preemergence, Rate 125 g/ha): 0
- Wheat plant response rating ([11]; Preemergence, Rate 250 g/ha): 0
- Wheat plant response rating ([11]; Preemergence, Rate 500 g/ha): 6
- Wheat plant response rating ([11]; Rate 62 g/ha, Postemergence): 2
- Plant response rating, Wheat [11, 28]: 4
- Plant response rating, B. signalgrass [12, 23]: 0
- Plant response rating, B. signalgrass [12, 24]: 0
- B. signalgrass plant response rating (0 to 10 scale, 0 is no effect, 10 is complete control) ([12]; Preemergence, Rate 125 g/ha): 3
- B. signalgrass plant response rating [12, 29]: 5
- B. signalgrass plant response rating [12, 25]: 5
- B. signalgrass plant response rating [12, 26]: 0
- Plant response rating, B. signalgrass [12, 27]: 1
- Plant response rating, B. signalgrass [12, 28]: 1
- Plant response rating, Soybean [13, 23]: 3
- Plant response rating, Soybean [13, 24]: 0
- Soybean plant response rating (0 to 10 scale) ([13]; Preemergence, Rate 125 g/ha): 0
- Soybean plant response rating ([13]; Preemergence, Rate 250 g/ha): 0
- Soybean plant response rating ([13]; Preemergence, Rate 500 g/ha): 0
- Soybean plant response rating ([13]; Rate 62 g/ha, Postemergence): 2
- Plant response rating, Soybean [13, 28]: 5
- Plant response rating, Ducksalad [14, 21]: 0
- Plant response rating, Ducksalad [14, 22]: 2
- Plant response rating, Blackgrass [15, 23]: 6
- Plant response rating, Blackgrass [15, 24]: 5
- Blackgrass plant response rating (0 to 10 scale) ([15]; Preemergence, Rate 125 g/ha): 6
- Blackgrass plant response rating [15, 29]: 9
- Blackgrass plant response rating [15, 25]: 9
- Blackgrass plant response rating [15, 26]: 3
- Plant response rating, Blackgrass [15, 27]: 6
- Plant response rating, Blackgrass [15, 28]: 7
- Plant response rating, Sugarbeets [16, 23]: 0
- Plant response rating, Sugarbeets [16, 24]: 0
- Sugarbeets plant response rating (0 to 10 scale) ([16]; Preemergence, Rate 125 g/ha): 0
- Sugarbeets plant response rating ([16]; Preemergence, Rate 250 g/ha): 2
- Sugarbeets plant response rating ([16]; Preemergence, Rate 500 g/ha): 5
- Sugarbeets plant response rating ([16]; Rate 62 g/ha, Postemergence): 0
- Plant response rating, Sugarbeets [16, 28]: 0
- Plant response rating, Morningglory [17, 23]: 6
- Plant response rating, Morningglory [17, 24]: 0
- Morningglory plant response rating (0 to 10 scale) ([17]; Preemergence, Rate 125 g/ha): 0
- Morningglory plant response rating ([17]; Preemergence, Rate 250 g/ha): 0
- Morningglory plant response rating ([17]; Preemergence, Rate 500 g/ha): 0
- Morningglory plant response rating ([17]; Rate 62 g/ha, Postemergence): 4
- Plant response rating, Morningglory [17, 28]: 10
- Plant response rating, Rape [18, 23]: 0
- Plant response rating, Rape [18, 24]: 0
- Rape plant response rating (0 to 10 scale) ([18]; Preemergence, Rate 125 g/ha): 2
- Rape plant response rating ([18]; Preemergence, Rate 250 g/ha): 4
- Rape plant response rating ([18]; Preemergence, Rate 500 g/ha): 5
- Rape plant response rating ([18]; Rate 62 g/ha, Postemergence): 0
- Plant response rating, Rape [18, 28]: 0
- Plant response rating, Giant foxtail [19, 23]: 4
- Plant response rating, Giant foxtail [19, 24]: 10
- Giant foxtail plant response rating (0 to 10 scale) ([19]; Preemergence, Rate 125 g/ha): 10
- Giant foxtail plant response rating ([19]; Preemergence, Rate 250 g/ha): 10
- Giant foxtail plant response rating ([19]; Preemergence, Rate 500 g/ha): 10
- Giant foxtail plant response rating ([19]; Rate 62 g/ha, Postemergence): 2
- Plant response rating, Giant foxtail [19, 28]: 8
- Plant response rating, Corn [20, 23]: 0
- Plant response rating, Corn [20, 24]: 0
- Corn plant response rating (0 to 10 scale) ([20]; Preemergence, Rate 125 g/ha): 0
- Corn plant response rating ([20]; Preemergence, Rate 250 g/ha): 2
- Corn plant response rating ([20]; Preemergence, Rate 500 g/ha): 6
- Corn plant response rating ([20]; Rate 62 g/ha, Postemergence): 0
- Plant response rating, Corn [20, 28]: 3
